Values quoted from earlier work in patent publication US10981928B2, “Methods of making low odor choline salts of an organic compound” (HALO LIFE SCIENCE, LLC, priority 2016, dated 2021).
≈ marks a conversion by molar mass, not a printed value.

Key:
[1] = comparison value
[2] = PEG 400 at 37° C.; comparison value

solubility in water [1]: ~4 µg/mL (≈ 0.0132 mM)
solubility in PEG 400 [2]: 8 mg/mL (≈ 26.5 mM)
Structure (SMILES): O=c1oc2c(O)c(O)cc3c(=O)oc4c(O)c(O)cc1c4c23 [ellagic acid]
